The text below walks through data of article PMC10172927, “Maturation of the malarial phosphatidylserine decarboxylase is mediated by high affinity binding to anionic phospholipids” (The Journal of Biological Chemistry, 2023).

The test concerns the target T1, PkPSD proenzyme; MBP-His6-Δ34PkPSD(S308A) (Plasmodium knowlesi, UniProt B3L2V1, S308A).
T1 construct: gene PKH_072580
As to the kind of experiment: biochemical.

Structures are written as SMILES.

T1 sequence (B3L2V1 35-354 S308A): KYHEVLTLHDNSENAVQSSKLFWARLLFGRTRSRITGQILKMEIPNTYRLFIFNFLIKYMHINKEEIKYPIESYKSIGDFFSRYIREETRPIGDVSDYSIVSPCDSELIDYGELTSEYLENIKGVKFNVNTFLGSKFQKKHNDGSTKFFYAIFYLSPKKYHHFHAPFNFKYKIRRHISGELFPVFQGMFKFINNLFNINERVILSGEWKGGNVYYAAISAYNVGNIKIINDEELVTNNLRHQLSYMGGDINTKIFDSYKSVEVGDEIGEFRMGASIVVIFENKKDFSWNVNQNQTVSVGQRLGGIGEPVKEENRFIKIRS

Broadly, the Kd is the concentration at which binding is half-saturated. The low end stands for higher affinity, the high end for lower affinity. `CCCCCCCC/C=C\CCCCCCCC(=O)OC[C@H](COP(=O)(O)OC[C@H](N)C(=O)O)OC(=O)CCCCCCC/C=C\CCCCCCCC` [DOPS] gave a Kd of 80.4 nM. That is a double-digit nanomolar value.
Consider `CCCCCCCC/C=C\CCCCCCCC(=O)OC[C@H](COP(=O)(O)OCC(O)CO)OC(=O)CCCCCCC/C=C\CCCCCCCC` (some centres unmarked) [DOPG], for which the affinity, expressed as Kd, was 66.4 nM.
